Reference: PubChem BioAssay AID248 (DTP/NCI, 2004)
Where “and” joins values, the source holds several entries; their conditions need not be identical. Equal entries are not always repeated. Inconclusive results and toxic doses are left out. Cut-off read from the data, not from the text of the source: active = T/C of 150% or more; inactive = T/C below 125%.

Tested on: L1210 leukemia ip in BDF1 mice, survival T/C
Assay: NCI In Vivo Anticancer Drug Screen. Data for tumor model L1210 Leukemia (intraperitoneal) in B6D2F1 (BDF1) mice
Details: endpoint: mean survival time, higher = longer survival
Outline: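 Value reflects the ratio of survival in compound-treated mice to survival in vehicle-treated controls, with both groups carrying the same transplanted tumor.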

[1] = dose: 100.0 mg/kg/injection, schedule: Q04DX003 (ip), vehicle: saline
[2] = dose: 200.0 mg/kg/injection, schedule: Q01DX009 (ip), vehicle: saline with Tween-80
[3] = dose: 200.0 mg/kg/injection, schedule: Q01DX009 (ip), vehicle: saline
[4] = dose: 200.0 mg/kg/injection, schedule: Q04DX003 (ip), vehicle: saline
[5] = dose: 400.0 mg/kg/injection, schedule: Q01DX009 (ip), vehicle: saline with Tween-80
[6] = dose: 400.0 mg/kg/injection, schedule: Q01DX009 (ip), vehicle: saline
[7] = dose: 100.0 mg/kg/injection, schedule: Q04DX003 (ip), vehicle: Klucel (hydroxypropylcellulose) (HPC)
[8] = dose: 200.0 mg/kg/injection, schedule: Q04DX003 (ip), vehicle: Klucel (hydroxypropylcellulose) (HPC)
[9] = dose: 100.0 mg/kg/injection, schedule: Q04DX002 (ip), vehicle: gum acacia
[10] = dose: 200.0 mg/kg/injection, schedule: Q04DX002 (ip), vehicle: gum acacia
[11] = dose: 100.0 mg/kg/injection, schedule: Q01DX009 (ip), vehicle: saline
[12] = dose: 100.0 mg/kg/injection, schedule: Q01DX009 (ip), vehicle: Klucel (hydroxypropylcellulose) (HPC)
[13] = dose: 200.0 mg/kg/injection, schedule: Q01DX009 (ip), vehicle: Klucel (hydroxypropylcellulose) (HPC)
[14] = dose: 400.0 mg/kg/injection, schedule: Q01DX009 (ip), vehicle: Klucel (hydroxypropylcellulose) (HPC)
[15] = dose: 400.0 mg/kg/injection, schedule: Q04DX003 (ip), vehicle: Klucel (hydroxypropylcellulose) (HPC)
[16] = dose: 100.0 mg/kg/injection, schedule: Q01DX009 (ip), vehicle: saline with Tween-80

Measured: T/C

NC(=O)CC(N)C(=O)O (configuration not stated)
inactive: dose: 100.0 mg/kg/injection, schedule: Q01DX001 (ip), vehicle: saline 96 % of control | [1] 98 % of control | dose: 200.0 mg/kg/injection, schedule: Q01DX001 (ip), vehicle: other 107 % of control | dose: 200.0 mg/kg/injection, schedule: Q01DX001 (ip), vehicle: saline 97 % of control and 104 % of control | dose: 200.0 mg/kg/injection, schedule: Q01DX009 (ip), vehicle: other 102 % of control | [2] 98 % of control | [3] 97 % of control | dose: 200.0 mg/kg/injection, schedule: Q04DX003 (ip), vehicle: other 102 % of control | [4] 106 % of control and 108 % of control | dose: 400.0 mg/kg/injection, schedule: Q01DX001 (ip), vehicle: other 107 % of control | dose: 400.0 mg/kg/injection, schedule: Q01DX001 (ip), vehicle: saline 98 % of control | dose: 400.0 mg/kg/injection, schedule: Q01DX009 (ip), vehicle: other 94 % of control | [5] 96 % of control | [6] 103 % of control | dose: 400.0 mg/kg/injection, schedule: Q04DX003 (ip), vehicle: other 96 % of control | dose: 400.0 mg/kg/injection, schedule: Q04DX003 (ip), vehicle: saline 106 % of control and 102 % of control | dose: 800.0 mg/kg/injection, schedule: Q01DX001 (ip), vehicle: other 105 % of control | dose: 800.0 mg/kg/injection, schedule: Q01DX001 (ip), vehicle: saline 106 % of control | dose: 800.0 mg/kg/injection, schedule: Q01DX009 (ip), vehicle: other 100 % of control | dose: 800.0 mg/kg/injection, schedule: Q01DX009 (ip), vehicle: saline with Tween-80 101 % of control | dose: 800.0 mg/kg/injection, schedule: Q01DX009 (ip), vehicle: saline 100 % of control | dose: 800.0 mg/kg/injection, schedule: Q04DX003 (ip), vehicle: other 103 % of control | dose: 800.0 mg/kg/injection, schedule: Q04DX003 (ip), vehicle: saline 101 % of control | dose: 1600.0 mg/kg/injection, schedule: Q01DX001 (ip), vehicle: other 112 % of control | dose: 1600.0 mg/kg/injection, schedule: Q01DX001 (ip), vehicle: saline 101 % of control | dose: 1600.0 mg/kg/injection, schedule: Q01DX009 (ip), vehicle: other 103 % of control | dose: 1600.0 mg/kg/injection, schedule: Q01DX009 (ip), vehicle: saline with Tween-80 98 % of control | dose: 1600.0 mg/kg/injection, schedule: Q01DX009 (ip), vehicle: saline 99 % of control | dose: 1600.0 mg/kg/injection, schedule: Q04DX003 (ip), vehicle: other 96 % of control | dose: 1600.0 mg/kg/injection, schedule: Q04DX003 (ip), vehicle: saline 100 % of control

O=C1NC(=O)/C(=C/c2ccco2)N1
inactive: [7] 103 % of control | [8] 90 % of control

Cc1cccnc1NC(=S)Nc1ccccc1Cl
inactive: [9] 88 % of control | [10] 98 % of control

C/C(=N\N=C(/C)c1ccccc1O)c1ccccc1O
inactive: [9] 96 % of control | [10] 93 % of control | dose: 400.0 mg/kg/injection, schedule: Q04DX002 (ip), vehicle: gum acacia 101 % of control

CC(C)(Cc1ccccc1)NC(=O)NCCCl
inactive: [11] 97 % of control | dose: 100.0 mg/kg/injection, schedule: Q04DX002 (ip), vehicle: saline 93 % of control | [3] 91 % of control | dose: 200.0 mg/kg/injection, schedule: Q04DX002 (ip), vehicle: saline 96 % of control | [6] 108 % of control | dose: 400.0 mg/kg/injection, schedule: Q04DX002 (ip), vehicle: saline 96 % of control

Nc1nc(SCc2ccccc2Cl)cc(C(=O)O)n1
inactive: dose: 50.0 mg/kg/injection, schedule: Q01DX Z (ip), vehicle: methylcellulose (MC) 102 % of control

CC1CCN(c2ccc([N+](=O)[O-])cc2)CC1
inactive: [12] 100 % of control | [7] 97 % of control | [13] 99 % of control | [8] 95 % of control | [14] 100 % of control | [15] 101 % of control

O=c1[nH]cncc1CCC1OCCO1
inactive: [11] 98 % of control | [3] 109 % of control

O=c1oc2cc(O)ccc2c2ccccc12
inactive: [7] 98 % of control | [8] 96 % of control | [15] 102 % of control

COC1CCC2CC3C4Cc5cn[nH]c5C5OC1C2C54CCN3C (configuration not stated)
inactive: [1] 95 % of control | [4] 86 % of control

CCCCCCC(C)Cl (configuration not stated)
inactive: [16] 105 % of control | [2] 108 % of control | [5] 106 % of control

C=CCC(OC(=O)Nc1ccc(Cl)cc1)C1OC(c2ccccc2)OC2COC(c3ccccc3)OC21 (configuration not stated)
inactive: dose: 100.0 mg/kg/injection, schedule: Q01DX001 (ip), vehicle: gum acacia 91 % of control | dose: 200.0 mg/kg/injection, schedule: Q01DX001 (ip), vehicle: gum acacia 91 % of control | dose: 400.0 mg/kg/injection, schedule: Q01DX001 (ip), vehicle: gum acacia 93 % of control

Cc1cccc(C)c1NC(=O)Nc1ccc(Cl)c(Cl)c1
inactive: [12] 97 % of control | [7] 95 % of control | [13] 94 % of control | [8] 86 % of control | [14] 94 % of control | [15] 91 % of control

CCC(Cl)(Cl)[N+](=O)[O-]
inactive: dose: 100.0 mg/kg/injection, schedule: Q04DX002 (ip), vehicle: saline with Tween-80 98 % of control | dose: 200.0 mg/kg/injection, schedule: Q04DX002 (ip), vehicle: saline with Tween-80 98 % of control | dose: 400.0 mg/kg/injection, schedule: Q04DX002 (ip), vehicle: saline with Tween-80 102 % of control

Cc1cccc(NC=O)c1
inactive: [16] 100 % of control | dose: 100.0 mg/kg/injection, schedule: Q04DX003 (ip), vehicle: saline with Tween-80 97 % of control | [2] 98 % of control | dose: 200.0 mg/kg/injection, schedule: Q04DX003 (ip), vehicle: saline with Tween-80 102 % of control | [5] 99 % of control
